Laboratory results: PubChem BioAssay AID2060627 (Molecular Pharmacology Branch, DTP, NCI, 2025)
“And” between values parts separate entries of the source, which are not always exact repeats. Equal entries are not always repeated.

System: 156681-154-R-J1-PDC complex spheroid viability
Test: Anticancer human tumor 156681-154-R-J1-PDC patient-derived melanoma cell line growth inhibition [CLK]
Conditions: for viability, T/C: stronger effect = lower value
How it was run: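 Patient-derived tumor cells grown as complex spheroids with HUVEC endothelial cells and mesenchymal stem cells, treated with drug combinations. Concentrations descend in half-log steps from near clinical Cmax, or from 10 microM if Cmax unknown.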

[1] = curve of first compound, second compound 0.0316 µM
[2] = curve of first compound, second compound 0.1 µM
[3] = curve of first compound, second compound 0.316 µM
[4] = curve of first compound, second compound 1 µM
[5] = curve of first compound, second compound 3.16 µM
[6] = curve of first compound, second compound 10 µM
[7] = second compound 0.0316 µM, first compound 0.0316 µM
[8] = second compound 0.0316 µM, first compound 0.1 µM
[9] = second compound 0.0316 µM, first compound 0.316 µM
[10] = second compound 0.0316 µM, first compound 1 µM
[11] = second compound 0.0316 µM, first compound 3.16 µM
[12] = second compound 0.0316 µM, first compound 10 µM
[13] = second compound 0.1 µM, first compound 0.0316 µM
[14] = second compound 0.1 µM, first compound 0.1 µM
[15] = second compound 0.1 µM, first compound 0.316 µM
[16] = second compound 0.1 µM, first compound 1 µM
[17] = second compound 0.1 µM, first compound 3.16 µM
[18] = second compound 0.1 µM, first compound 10 µM
[19] = second compound 0.316 µM, first compound 0.0316 µM
[20] = second compound 0.316 µM, first compound 0.1 µM
[21] = second compound 0.316 µM, first compound 0.316 µM
[22] = second compound 0.316 µM, first compound 1 µM
[23] = second compound 0.316 µM, first compound 3.16 µM
[24] = second compound 0.316 µM, first compound 10 µM
[25] = second compound 1 µM, first compound 0.0316 µM
[26] = second compound 1 µM, first compound 0.1 µM
[27] = second compound 1 µM, first compound 0.316 µM
[28] = second compound 1 µM, first compound 1 µM
[29] = second compound 1 µM, first compound 3.16 µM
[30] = second compound 1 µM, first compound 10 µM
[31] = second compound 3.16 µM, first compound 0.0316 µM
[32] = second compound 3.16 µM, first compound 0.1 µM
[33] = second compound 3.16 µM, first compound 0.316 µM
[34] = second compound 3.16 µM, first compound 1 µM
[35] = second compound 3.16 µM, first compound 3.16 µM
[36] = second compound 3.16 µM, first compound 10 µM
[37] = second compound 10 µM, first compound 0.0316 µM
[38] = second compound 10 µM, first compound 0.1 µM
[39] = second compound 10 µM, first compound 0.316 µM
[40] = second compound 10 µM, first compound 1 µM
[41] = second compound 10 µM, first compound 3.16 µM
[42] = second compound 10 µM, first compound 10 µM
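Also: spheroids exposed to the agents for seven days.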
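For viability, T/C in this document: 100% = DMSO vehicle control viability.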

## COC1C=CCC(C)C(C)S(=O)(=O)NC(=O)c2ccc3c(c2)N(CC2CCC21)CC1(CCCc2cc(Cl)ccc21)CO3 (configuration not stated) + CN1CCN(c2cc(C(=O)Nc3cc4cc(-c5cnn(C)c5)ccc4cn3)ccn2)CC1
[1]
  IC50: 1.6 µM
[2]
  IC50: 1.17 µM
[3]
  IC50: < 0.0316 µM
[4]
  IC50: < 0.0316 µM
[5]
  IC50: < 0.0316 µM
[6]
  IC50: < 0.0316 µM
[7]
  viability, T/C: 111%
[8]
  viability, T/C: 83.4%
[9]
  viability, T/C: 86.8%
[10]
  viability, T/C: 75.4%
[11]
  viability, T/C: 13.8%
[12]
  viability, T/C: 1.82%
[13]
  viability, T/C: 90.1%
[14]
  viability, T/C: 97.8%
[15]
  viability, T/C: 81.2%
[16]
  viability, T/C: 58%
[17]
  viability, T/C: 11.7%
[18]
  viability, T/C: 2.71%
[19]
  viability, T/C: 27.3%
[20]
  viability, T/C: 17.2%
[21]
  viability, T/C: 16.7%
[22]
  viability, T/C: 10.2%
[23]
  viability, T/C: 4.46%
[24]
  viability, T/C: 1.8%
[25]
  viability, T/C: 0.2%
[26]
  viability, T/C: 0.34%
[27]
  viability, T/C: 0.18%
[28]
  viability, T/C: 0.14%
[29]
  viability, T/C: 0.12%
[30]
  viability, T/C: 2.25%
[31]
  viability, T/C: 0.14%
[32]
  viability, T/C: 2.92%
[33]
  viability, T/C: 1.77%
[34]
  viability, T/C: 0.13%
[35]
  viability, T/C: 2.33%
[36]
  viability, T/C: 1.15%
[37]
  viability, T/C: 0.16%
[38]
  viability, T/C: 0.14%
[39]
  viability, T/C: 0.26%
[40]
  viability, T/C: 0.22%
[41]
  viability, T/C: 0.29%
[42]
  viability, T/C: 0.25%

## C=CC(=O)N1CCN(c2nc(=O)n(-c3c(C)ccnc3C(C)C)c3nc(-c4c(O)cccc4F)c(F)cc23)C(C)C1 (configuration not stated) + CNC(=O)c1ccc(Nc2nc(OC3CCCC3)c3c(-c4ccc5nc(C)oc5c4)c[nH]c3n2)c(OC)c1
[1]
  IC50: > 10 µM
[2]
  IC50: > 10 µM
[3]
  IC50: 5.09 µM
[4]
  IC50: < 0.0316 µM
[5]
  IC50: < 0.0316 µM
[6]
  IC50: < 0.0316 µM
[7]
  viability, T/C: 83.4%
[8]
  viability, T/C: 105%
[9]
  viability, T/C: 91.4%
[10]
  viability, T/C: 106%
[11]
  viability, T/C: 129%
[12]
  viability, T/C: 82.7%
[13]
  viability, T/C: 47.1%
[14]
  viability, T/C: 67.9%
[15]
  viability, T/C: 71.1%
[16]
  viability, T/C: 58.5%
[17]
  viability, T/C: 70.6%
[18]
  viability, T/C: 36%
[19]
  viability, T/C: 61.1%
[20]
  viability, T/C: 71.6%
[21]
  viability, T/C: 72.3%
[22]
  viability, T/C: 71.2%
[23]
  viability, T/C: 65.6%
[24]
  viability, T/C: 27.2%
[25]
  viability, T/C: 51.9%
[26]
  viability, T/C: 51%
[27]
  viability, T/C: 36.9%
[28]
  viability, T/C: 52.3%
[29]
  viability, T/C: 49%
[30]
  viability, T/C: 14.8%
[31]
  viability, T/C: 35%
[32]
  viability, T/C: 40.4%
[33]
  viability, T/C: 33.4%
[34]
  viability, T/C: 44.2%
[35]
  viability, T/C: 40.1%
[36]
  viability, T/C: 23.4%
[37]
  viability, T/C: 41.6%
[38]
  viability, T/C: 30.6%
[39]
  viability, T/C: 37.4%
[40]
  viability, T/C: 36.3%
[41]
  viability, T/C: 30.9%
[42]
  viability, T/C: 12.4%

## O=c1[nH]cc(F)c(=O)[nH]1 + CNC(=O)c1ccc(Nc2nc(OC3CCCC3)c3c(-c4ccc5nc(C)oc5c4)c[nH]c3n2)c(OC)c1
[1]
  IC50: 7.95 µM
[2]
  IC50: 5.5 µM
[3]
  IC50: 3.42 µM
[4]
  IC50: 4.12 µM
[5]
  IC50: < 0.0316 µM
[6]
  IC50: < 0.0316 µM
[7]
  viability, T/C: 96.6%
[8]
  viability, T/C: 99%
[9]
  viability, T/C: 91.9%
[10]
  viability, T/C: 95.9%
[11]
  viability, T/C: 86.9%
[12]
  viability, T/C: 40.8%
[13]
  viability, T/C: 63.9%
[14]
  viability, T/C: 79.2%
[15]
  viability, T/C: 74.4%
[16]
  viability, T/C: 74.3%
[17]
  viability, T/C: 59.6%
[18]
  viability, T/C: 39.7%
[19]
  viability, T/C: 78.6%
[20]
  viability, T/C: 75.2%
[21]
  viability, T/C: 73.4%
[22]
  viability, T/C: 60.7%
[23]
  viability, T/C: 53.8%
[24]
  viability, T/C: 30.6%
[25]
  viability, T/C: 70.7%
[26]
  viability, T/C: 46.3%
[27]
  viability, T/C: 58.2%
[28]
  viability, T/C: 52.7%
[29]
  viability, T/C: 62.2%
[30]
  viability, T/C: 23.6%
[31]
  viability, T/C: 49.7%
[32]
  viability, T/C: 42.3%
[33]
  viability, T/C: 47.9%
[34]
  viability, T/C: 43.8%
[35]
  viability, T/C: 35%
[36]
  viability, T/C: 19.8%
[37]
  viability, T/C: 51%
[38]
  viability, T/C: 40.5%
[39]
  viability, T/C: 41.2%
[40]
  viability, T/C: 45.4%
[41]
  viability, T/C: 41.2%
[42]
  viability, T/C: 20.1%

## CC(CO)NC(=O)c1cc(-c2ccc(Cl)cc2)nn(-c2cnn(C)c2)c1=O (configuration not stated) + CN1CCN(c2cc(C(=O)Nc3cc4cc(-c5cnn(C)c5)ccc4cn3)ccn2)CC1
[1]
  IC50: > 10 µM
[2]
  IC50: > 10 µM
[3]
  IC50: < 0.0316 µM
[4]
  IC50: < 0.0316 µM
[5]
  IC50: < 0.0316 µM
[6]
  IC50: < 0.0316 µM
[7]
  viability, T/C: 97.7%
[8]
  viability, T/C: 107%
[9]
  viability, T/C: 103%
[10]
  viability, T/C: 114%
[11]
  viability, T/C: 84.2%
[12]
  viability, T/C: 59.6%
[13]
  viability, T/C: 99.3%
[14]
  viability, T/C: 94.7%
[15]
  viability, T/C: 87.5%
[16]
  viability, T/C: 81.8%
[17]
  viability, T/C: 67%
[18]
  viability, T/C: 56%
[19]
  viability, T/C: 26.8%
[20]
  viability, T/C: 38.3%
[21]
  viability, T/C: 34.2%
[22]
  viability, T/C: 29.2%
[23]
  viability, T/C: 29.1%
[24]
  viability, T/C: 21.5%
[25]
  viability, T/C: 0.34%
[26]
  viability, T/C: 0.99%
[27]
  viability, T/C: 0.36%
[28]
  viability, T/C: 1.64%
[29]
  viability, T/C: 1.51%
[30]
  viability, T/C: 2.77%
[31]
  viability, T/C: 0.25%
[32]
  viability, T/C: 0.92%
[33]
  viability, T/C: 0.29%
[34]
  viability, T/C: 1.68%
[35]
  viability, T/C: 0.58%
[36]
  viability, T/C: 0.23%
[37]
  viability, T/C: 0.29%
[38]
  viability, T/C: 0.66%
[39]
  viability, T/C: 0.9%
[40]
  viability, T/C: 1.31%
[41]
  viability, T/C: 0.62%
[42]
  viability, T/C: 1.4%

## COc1cccc2c1C(=O)c1c(O)c3c(c(O)c1C2=O)CC(O)(C(=O)CO)CC3OC1CC(N)C(O)C(C)O1 (configuration not stated)
Compound 0.0316 µM
  viability, T/C: 37% and 29.8%
Compound 0.1 µM
  viability, T/C: 25.2% and 19.9%
Compound 0.316 µM
  viability, T/C: 9.16% and 2.97%
Compound 1 µM
  viability, T/C: 0.48% and 0.17%
Compound 3.16 µM
  viability, T/C: 1.37% and 0.12%
Compound 10 µM
  viability, T/C: 2.47% and 0.67%
Curve of compound
  IC50: < 0.0316 µM

## COc1ccc([C@@H](O)c2cc(-c3ncnc4cc(N5CCOCC5)ccc34)c(F)cc2Cl)nn1 + CN1CCN(c2cc(C(=O)Nc3cc4cc(-c5cnn(C)c5)ccc4cn3)ccn2)CC1
[1]
  IC50: 2.4 µM
[2]
  IC50: 1.45 µM
[3]
  IC50: < 0.0316 µM
[4]
  IC50: < 0.0316 µM
[5]
  IC50: < 0.0316 µM
[6]
  IC50: < 0.0316 µM
[7]
  viability, T/C: 109%
[8]
  viability, T/C: 88.3%
[9]
  viability, T/C: 91.3%
[10]
  viability, T/C: 63.6%
[11]
  viability, T/C: 45.3%
[12]
  viability, T/C: 19.2%
[13]
  viability, T/C: 97.5%
[14]
  viability, T/C: 84%
[15]
  viability, T/C: 73.5%
[16]
  viability, T/C: 58.2%
[17]
  viability, T/C: 35%
[18]
  viability, T/C: 16.8%
[19]
  viability, T/C: 15.7%
[20]
  viability, T/C: 16.9%
[21]
  viability, T/C: 14.8%
[22]
  viability, T/C: 13%
[23]
  viability, T/C: 8.38%
[24]
  viability, T/C: 2.77%
[25]
  viability, T/C: 0.13%
[26]
  viability, T/C: 2%
[27]
  viability, T/C: 1.91%
[28]
  viability, T/C: 0.33%
[29]
  viability, T/C: 1.72%
[30]
  viability, T/C: 2.7%
[31]
  viability, T/C: 0.06%
[32]
  viability, T/C: 1.44%
[33]
  viability, T/C: 0.99%
[34]
  viability, T/C: 0.08%
[35]
  viability, T/C: 3.19%
[36]
  viability, T/C: 0.56%
[37]
  viability, T/C: 0.06%
[38]
  viability, T/C: 2.47%
[39]
  viability, T/C: 1.95%
[40]
  viability, T/C: 0.88%
[41]
  viability, T/C: 2.45%
[42]
  viability, T/C: 0.51%
